According to US9238631B2, “Radiolabeled amino acids for diagnostic imaging” (PIRAMAL IMAGING SA, priority 2011, dated 2016):

Test system: NCI-H460 tumor
Assay: In vivo biodistribution in NCI-H460 tumor bearing mice
Set-up: Summary: organs / Summary: Carcass / Summary: faeces: unit not given here
Details: for Summary: urine: in %; for Summary: Recovery: in % (unit assumed)
Method in brief: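 Biodistribution of 18F-labeled compounds was assessed in female NMRI (nu/nu) mice bearing NCI-H460 tumors, established by inoculating 5×10^6 cells 8 to 10 days beforehand. Each mouse received 185 kBq of the fluorinated tracer; at least n=3 animals per time point were sacrificed, organs excised, and radioactivity quantified with a γ-counter.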

With N[C@@H](CCC(Cc1ccc(OCC[18F])cc1)C(=O)O)C(=O)O (stereo partly drawn) [[^18F]-12] [(2S)-2-Amino-5-[4-(2-[^18F]fluoroethoxy)benzyl]hexanedioic acid] the “Pancreas uptake (% ID/g)” value (0.25 h p.i.) was 11.45 % ID/g, the “Pancreas (% ID/g at 1 h p.i.)” value (1 h p.i.) was 3.62 % ID/g and the “Tumor (% ID/g at 1 h p.i.)” value (1 h p.i.) was 6.47 % ID/g. The “Urine (% ID at 1 h p.i.)” value (1 h p.i.) was 82.1 ± 7.3 % ID, the “activity excreted (kidneys/urine)” value (1 h p.i.) was 82.1% and the tumor-to-pancreas ratio (1 h p.i.) was 1.8. The T/Blood (1 h post injection) was 33.9, the T/Muscle (1 h post injection) was 103.4 and the “Tumor uptake (% ID/g)” value (2 h p.i.) was 7.21 % ID/g. The “Tumor uptake (% ID/g)” value (4 h p.i.) was 5.17 % ID/g, the “tumor uptake and retention (summary statement)” value (mouse, in vivo) was “high tumor uptake and retention” and the “Adrenals (% Dosis/g)” value (timepoint 0.25 h) was 0.69 % Dosis/g. The “Blood (% Dosis/g)” value (timepoint 0.25 h) was 1.28 % Dosis/g, the “Bone (% Dosis/g)” value (timepoint 0.25 h) was 0.39 % Dosis/g and the “Brain (% Dosis/g)” value (timepoint 0.25 h) was 0.09 % Dosis/g. For the same molecule, the “Fat (% Dosis/g)” value (timepoint 0.25 h) was 0.16 % Dosis/g, the “Gallbladder (% Dosis/g)” value (timepoint 0.25 h) was 2.53 % Dosis/g and the “Heart (% Dosis/g)” value (timepoint 0.25 h) was 0.58 % Dosis/g. The “Intestine (% Dosis/g)” value (timepoint 0.25 h) was 1.10 % Dosis/g, the “Liver (% Dosis/g)” value (timepoint 0.25 h) was 9.02 % Dosis/g and the “Muscle (% Dosis/g)” value (timepoint 0.25 h) was 0.26 % Dosis/g. For the same molecule, the “Ovaries (% Dosis/g)” value (timepoint 0.25 h) was 1.25 % Dosis/g, the “Pancreas (% Dosis/g)” value (timepoint 0.25 h) was 11.45 % Dosis/g and the “Skin (% Dosis/g)” value (timepoint 0.25 h) was 1.58 % Dosis/g. The “Spleen (% Dosis/g)” value (timepoint 0.25 h) was 2.49 % Dosis/g, the “Stomach (% Dosis/g)” value (timepoint 0.25 h) was 3.08 % Dosis/g and the “Summary: Carcass” value (timepoint 0.25 h) was 9.55. The “Summary: organs” value (timepoint 0.25 h) was 36.92, the “Tail (% Dosis/g)” value (timepoint 0.25 h) was 3.02 % Dosis/g and the “Thyroid (% Dosis/g)” value (timepoint 0.25 h) was 0.78 % Dosis/g. For the same molecule, the “Tumor (% Dosis/g)” value (timepoint 0.25 h) was 5.55 % Dosis/g, the “Tumor/Tissue: Adrenals” value (timepoint 0.25 h) was 8.53 and the “Tumor/Tissue: Blood” value (timepoint 0.25 h) was 4.49. For the same molecule, the “Tumor/Tissue: Bone” value (timepoint 0.25 h) was 14.61, the “Tumor/Tissue: Brain” value (timepoint 0.25 h) was 62.27 and the “Tumor/Tissue: Fat” value (timepoint 0.25 h) was 37.81. For the same molecule, the “Tumor/Tissue: Gallbladder” value (timepoint 0.25 h) was 2.19, the “Tumor/Tissue: Heart” value (timepoint 0.25 h) was 9.67 and the “Tumor/Tissue: Intestine” value (timepoint 0.25 h) was 4.93. For the same molecule, the “Tumor/Tissue: Kidney” value (timepoint 0.25 h) was 0.36, the “Tumor/Tissue: Liver” value (timepoint 0.25 h) was 0.62 and the “Tumor/Tissue: Lung” value (timepoint 0.25 h) was 3.79. For the same molecule, the “Tumor/Tissue: Muscle” value (timepoint 0.25 h) was 20.90, the “Tumor/Tissue: Ovaries” value (timepoint 0.25 h) was 4.55 and the “Tumor/Tissue: Pancreas” value (timepoint 0.25 h) was 0.49. The “Tumor/Tissue: Skin” value (timepoint 0.25 h) was 3.71, the “Tumor/Tissue: Spleen” value (timepoint 0.25 h) was 2.27 and the “Tumor/Tissue: Stomach” value (timepoint 0.25 h) was 1.75. For the same molecule, the “Tumor/Tissue: Thyroid” value (timepoint 0.25 h) was 7.48, the “Tumor/Tissue: Uterus” value (timepoint 0.25 h) was 2.31 and the “Uterus (% Dosis/g)” value (timepoint 0.25 h) was 2.54 % Dosis/g. For the same molecule, the “Summary: urine” value (timepoint 0.25 h) was 50.49, the “Summary: Recovery” value (timepoint 0.25 h) was 96.96 and the “Adrenals (% Dosis/g)” value (timepoint 0.5 h) was 0.57 % Dosis/g. The “Blood (% Dosis/g)” value (timepoint 0.5 h) was 0.74 % Dosis/g, the “Bone (% Dosis/g)” value (timepoint 0.5 h) was 0.30 % Dosis/g and the “Brain (% Dosis/g)” value (timepoint 0.5 h) was 0.07 % Dosis/g. For the same molecule, the “Fat (% Dosis/g)” value (timepoint 0.5 h) was 0.12 % Dosis/g, the “Gallbladder (% Dosis/g)” value (timepoint 0.5 h) was 5.25 % Dosis/g and the “Heart (% Dosis/g)” value (timepoint 0.5 h) was 0.38 % Dosis/g. The “Intestine (% Dosis/g)” value (timepoint 0.5 h) was 4.00 % Dosis/g, the “Liver (% Dosis/g)” value (timepoint 0.5 h) was 5.93 % Dosis/g and the “Muscle (% Dosis/g)” value (timepoint 0.5 h) was 0.15 % Dosis/g. For the same molecule, the “Ovaries (% Dosis/g)” value (timepoint 0.5 h) was 1.06 % Dosis/g, the “Pancreas (% Dosis/g)” value (timepoint 0.5 h) was 9.94 % Dosis/g and the “Skin (% Dosis/g)” value (timepoint 0.5 h) was 1.08 % Dosis/g. The “Spleen (% Dosis/g)” value (timepoint 0.5 h) was 1.94 % Dosis/g, the “Stomach (% Dosis/g)” value (timepoint 0.5 h) was 4.18 % Dosis/g and the “Summary: Carcass” value (timepoint 0.5 h) was 7.31. The “Summary: faeces” value (timepoint 0.5 h) was 0.10, the “Summary: organs” value (timepoint 0.5 h) was 33.35 and the “Tail (% Dosis/g)” value (timepoint 0.5 h) was 1.81 % Dosis/g. The “Thyroid (% Dosis/g)” value (timepoint 0.5 h) was 0.65 % Dosis/g, the “Tumor (% Dosis/g)” value (timepoint 0.5 h) was 6.91 % Dosis/g and the “Tumor/Tissue: Adrenals” value (timepoint 0.5 h) was 13.61. The “Tumor/Tissue: Blood” value (timepoint 0.5 h) was 9.81, the “Tumor/Tissue: Bone” value (timepoint 0.5 h) was 22.54 and the “Tumor/Tissue: Brain” value (timepoint 0.5 h) was 92.44. The “Tumor/Tissue: Fat” value (timepoint 0.5 h) was 64.26, the “Tumor/Tissue: Gallbladder” value (timepoint 0.5 h) was 1.36 and the “Tumor/Tissue: Heart” value (timepoint 0.5 h) was 20.04. The “Tumor/Tissue: Intestine” value (timepoint 0.5 h) was 4.66, the “Tumor/Tissue: Kidney” value (timepoint 0.5 h) was 0.79 and the “Tumor/Tissue: Liver” value (timepoint 0.5 h) was 1.27. For the same molecule, the “Tumor/Tissue: Lung” value (timepoint 0.5 h) was 7.67, the “Tumor/Tissue: Muscle” value (timepoint 0.5 h) was 45.35 and the “Tumor/Tissue: Ovaries” value (timepoint 0.5 h) was 6.59. The “Tumor/Tissue: Pancreas” value (timepoint 0.5 h) was 0.68, the “Tumor/Tissue: Skin” value (timepoint 0.5 h) was 6.42 and the “Tumor/Tissue: Spleen” value (timepoint 0.5 h) was 3.60. For the same molecule, the “Tumor/Tissue: Stomach” value (timepoint 0.5 h) was 2.18, the “Tumor/Tissue: Thyroid” value (timepoint 0.5 h) was 10.73 and the “Tumor/Tissue: Uterus” value (timepoint 0.5 h) was 5.85. The “Uterus (% Dosis/g)” value (timepoint 0.5 h) was 1.38 % Dosis/g, the “Summary: urine” value (timepoint 0.5 h) was 57.06 and the “Summary: Recovery” value (timepoint 0.5 h) was 97.82. The “Adrenals (% Dosis/g)” value (timepoint 1.0 h) was 0.27 % Dosis/g, the “Blood (% Dosis/g)” value (timepoint 1.0 h) was 0.19 % Dosis/g and the “Bone (% Dosis/g)” value (timepoint 1.0 h) was 0.16 % Dosis/g. For the same molecule, the “Brain (% Dosis/g)” value (timepoint 1.0 h) was 0.05 % Dosis/g, the “Fat (% Dosis/g)” value (timepoint 1.0 h) was 0.03 % Dosis/g and the “Gallbladder (% Dosis/g)” value (timepoint 1.0 h) was 8.20 % Dosis/g. The “Heart (% Dosis/g)” value (timepoint 1.0 h) was 0.11 % Dosis/g, the “Intestine (% Dosis/g)” value (timepoint 1.0 h) was 0.91 % Dosis/g and the “Liver (% Dosis/g)” value (timepoint 1.0 h) was 2.17 % Dosis/g. The “Muscle (% Dosis/g)” value (timepoint 1.0 h) was 0.07 % Dosis/g, the “Ovaries (% Dosis/g)” value (timepoint 1.0 h) was 0.79 % Dosis/g and the “Pancreas (% Dosis/g)” value (timepoint 1.0 h) was 3.62 % Dosis/g. The “Skin (% Dosis/g)” value (timepoint 1.0 h) was 0.61 % Dosis/g, the “Spleen (% Dosis/g)” value (timepoint 1.0 h) was 1.54 % Dosis/g and the “Stomach (% Dosis/g)” value (timepoint 1.0 h) was 0.94 % Dosis/g. For the same molecule, the “Summary: Carcass” value (timepoint 1.0 h) was 3.58.
